PubChem BioAssay (NCI)
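Assay format: 96-well plates, 48-hour exposure. Abbreviation: GI50, concentration required for 50% inhibition of growth. TGI denotes the concentration required for complete inhibition of growth.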

Legend:
Test in all cases: NCI tumour cell line growth inhibition, 48 h
[1] = test system: SK-MEL-5 melanoma
[2] = test system: ACHN renal
[3] = test system: MDA-MB-231 breast
[4] = test system: NCI/ADR-RES ovarian
[5] = test system: MDA-MB-435
[6] = test system: SN12C renal
[7] = test system: A498 renal
[8] = test system: BT-549 breast
[9] = test system: HCC-2998 colon
[10] = test system: OVCAR-5 ovarian
[11] = test system: RXF 393 renal
[12] = test system: NCI-H226 lung
[13] = test system: SK-OV-3 ovarian
[14] = test system: SF-539 CNS
[15] = test system: MOLT-4 leukemia
[16] = test system: MALME-3M melanoma
[17] = test system: SK-MEL-2 melanoma
[18] = test system: M14 melanoma
[19] = test system: NCI-H522 lung
[20] = test system: HL-60(TB) leukemia
[21] = test system: 786-0 renal
[22] = test system: KM12 colon
[23] = test system: HS 578T breast
[24] = test system: EKVX NSCLC
[25] = test system: RPMI-8226 leukemia
[26] = test system: COLO 205 colon
[27] = test system: UACC-257 melanoma
[28] = test system: OVCAR-8 ovarian
[29] = test system: HT29 colon
[30] = test system: UACC-62 melanoma
[31] = test system: TK-10 renal
[32] = test system: MCF7 breast
[33] = test system: A549 NSCLC
[34] = test system: SR leukemia
[35] = test system: K-562 leukemia
[36] = test system: SK-MEL-28 melanoma
[37] = test system: UO-31 renal
[38] = test system: DU-145 prostate
[39] = test system: SNB-75 CNS
[40] = test system: SF-295 CNS
[41] = test system: HOP-62 NSCLC
[42] = test system: U251 CNS
[43] = test system: SF-268 CNS
[44] = test system: OVCAR-4 ovarian
[45] = test system: HOP-92 NSCLC
[46] = test system: CCRF-CEM leukemia

Cc1[nH]c(C(=O)Nc2ccccc2OCc2cccc(C(=O)NC3CCCNC3)c2)c(Cl)c1Cl (stereo unspecified)
GI50 [1]: 1710 nM
TGI [1]: 3.11 µM
GI50 [2]: 1660 nM
TGI [2]: 3110 nM
GI50 [3]: 1750 nM
TGI [3]: 3.38 µM
GI50 [4]: 2960 nM
TGI [4]: 9.88 µM
GI50 [5]: 1740 nM
TGI [5]: 3240 nM
GI50 [6]: 1900 nM
TGI [6]: 3.72 µM
GI50 [7]: 1800 nM
TGI [7]: 5.59 µM
GI50 [8]: 2630 nM
TGI [8]: 9.75 µM
GI50 [9]: 2010 nM
TGI [9]: 3.73 µM
GI50 [10]: 1640 nM
TGI [10]: 3.06 µM
GI50 [11]: 1480 nM
TGI [11]: 3100 nM
GI50 [12]: 2010 nM
TGI [12]: 5.31 µM
GI50 [13]: 8.91 µM
TGI [13]: 26.9 µM
GI50 [14]: 1690 nM
TGI [14]: 3150 nM

Cc1ccc2c(c1)Oc1nc(N)c(C#N)c(N)c1C2Sc1ccc(F)cc1 (stereo unspecified)
GI50 [15]: 306 nM
GI50 [16]: 992 nM
TGI [16]: 2340 nM
GI50 [17]: 1300 nM
TGI [17]: 2600 nM
GI50 [1]: 1570 nM
TGI [1]: 2.95 µM
GI50 [18]: 1440 nM
TGI [18]: 2850 nM
GI50 [2]: 1340 nM
TGI [2]: 2630 nM
GI50 [19]: 785 nM
TGI [19]: 2100 nM
GI50 [20]: 242 nM
TGI [20]: 647 nM
GI50 [21]: 1190 nM
TGI [21]: 2450 nM
GI50 [22]: 1480 nM
TGI [22]: 2830 nM
GI50 [5]: 1260 nM
TGI [5]: 2670 nM
GI50 [23]: 1020 nM
TGI [23]: 4.22 µM
GI50 [7]: 1450 nM
TGI [7]: 2.78 µM
GI50 [24]: 1220 nM
TGI [24]: 2470 nM
GI50 [25]: 448 nM
TGI [25]: > 100 µM
GI50 [26]: 1330 nM
TGI [26]: 2780 nM
GI50 [8]: 415 nM
TGI [8]: 1.71 µM
GI50 [9]: 1510 nM
TGI [9]: 2.92 µM
GI50 [27]: 1290 nM
TGI [27]: 2580 nM
GI50 [28]: 1300 nM
TGI [28]: 2610 nM
GI50 [29]: 1820 nM
TGI [29]: 3.43 µM
GI50 [30]: 1500 nM
TGI [30]: 2870 nM
GI50 [31]: 2230 nM
TGI [31]: 3.7 µM
GI50 [32]: 361 nM
TGI [32]: 1990 nM
GI50 [33]: 1550 nM
TGI [33]: 3.01 µM
GI50 [34]: 301 nM
TGI [34]: > 100 µM
GI50 [35]: 309 nM
TGI [35]: > 100 µM
GI50 [36]: 1170 nM
TGI [36]: 2400 nM
GI50 [37]: 215 nM
TGI [37]: 1720 nM
GI50 [38]: 1480 nM
TGI [38]: 2820 nM
GI50 [11]: 611 nM
TGI [11]: 1690 nM
GI50 [39]: 956 nM
TGI [39]: 2330 nM
GI50 [12]: 1530 nM
TGI [12]: 4.16 µM
GI50 [40]: 1680 nM
TGI [40]: 3.07 µM
GI50 [41]: 1620 nM
TGI [41]: 3.08 µM
GI50 [42]: 1170 nM
TGI [42]: 2490 nM
GI50 [43]: 1230 nM
TGI [43]: 2520 nM
GI50 [13]: 1.8 µM
TGI [13]: 3.29 µM
GI50 [44]: 1450 nM
TGI [44]: 2780 nM
GI50 [14]: 1340 nM
TGI [14]: 2630 nM
GI50 [45]: 1140 nM
TGI [45]: 2440 nM
GI50 [46]: 201 nM
TGI [46]: > 100 µM
